Test: recombinant barcode read abundance after kanamycin selection (control-corrected) (log10(CPM+1)); higher = more efficient recombination; sequences stand for … in AGTGCAGAGAAAATCGGCCAGTTTTCTCTGCCTGCAGTCCGCATGCCGT…AGATTTATGCAGCGGACTGCCTTTCTCCCAAAGTGATAAACCGGACAGTATCATGGACCGGTTTTCCCGGTAATCCGTATTTGCAAGGTTGGTTTCACT; site = the 11-nt target
Outline: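 A vector carrying a T7-inducible recombinase and the last 73 bp of the bridge RNA received, by Gibson cloning, oligos encoding a promoter, target, barcode and the first 104 bridge RNA bases under J23119. The pooled constructs entered E. coli together with a donor plasmid by electroporation. Selection used chloramphenicol/ampicillin/kanamycin with 0.1 mM IPTG, with chloramphenicol/ampicillin LB agar as the control, each in two replicates. Recombination efficiency is the averaged, control-corrected counts-per-million of barcodes at recombinant junctions, reported as log10(CPM+1).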
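Further: IS621 recombinase and bridge RNA in Escherichia coli cells.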

Row | Sequence | recombinant barcode read abundance (log10)
1 | GGTGACTCTTGGGTTCTAACCTGTTGCCT (site GGTGGATCTAG) | 0.114
2 | GGTGCTCCTTGGGTTCTAACCTGTTGCAA (site GGTGCTCCTAT) | 0.0718
3 | GGTGCTCCTTGGGTTCTAACCTGTTGCAA (site GGTGCTCCTCT) | 0.0634
4 | GGTGCTCCTTGGGTTCTAACCTGTTGCAA (site GGTGCTCCTGT) | 0.0326
5 | GGTGCTCCTTGGGTTCTAACCTGTTGCAA (site GGTGCTCCTTT) | 0.3
6 | GGTGCTCCTTGGGTTCTAACCTGTTGCAG (site GGTGCTCCTAT) | 0.0917
7 | GGTGCTCCTTGGGTTCTAACCTGTTGCAG (site GGTGCTCCTCT) | 0.88
8 | GGTGCTCCTTGGGTTCTAACCTGTTGCAG (site GGTGCTCCTGT) | 0
9 | GGTGCTCCTTGGGTTCTAACCTGTTGCAG (site GGTGCTCCTTT) | 0.0255
10 | GGTGCTCCTTGGGTTCTAACCTGTTGCAT (site GGTGCTCCTAT) | 0.914
11 | GGTGCTCCTTGGGTTCTAACCTGTTGCAT (site GGTGCTCCTCT) | 0.017
12 | GGTGCTCCTTGGGTTCTAACCTGTTGCAT (site GGTGCTCCTGT) | 0.0976
13 | GGTGCTCCTTGGGTTCTAACCTGTTGCAT (site GGTGCTCCTTT) | 0.0242
14 | GGTGGGACTTGGGTTCTAACCTGTTGCAC (site AAATCTGCTAG) | 0.259
15 | GGTGGGACTTGGGTTCTAACCTGTTGCAC (site GGTGGGACTGT) | 1.95
16 | GGTTCATCTTGGGTTCTAACCTGTTGCCA (site GGCTCCTCTTG) | 0.0691
17 | GGTTCATCTTGGGTTCTAACCTGTTGCCA (site GGTTCATCTTG) | 0.0738
18 | GGTTCCTCTTGGGTTCTAACCTGTTGCGG (site GGTTCCTCTCC) | 0.933
19 | GGTTCCTCTTGGGTTCTAACCTGTTGCGG (site TACCTAACTAA) | 0.118
20 | GGTTGACCTTGGGTTCTAACCTGTTGCAT (site GGTTCACCTCT) | 0.226
21 | GGTTGACCTTGGGTTCTAACCTGTTGCAT (site GGTTGACCTAT) | 0.913
22 | GTAACCTCTTGGGTTCTAACCTGTTGCCC (site GTAACCTCTAG) | 0.928

Row | Sequence | recombinant barcode read abundance (log10)
23 | GTAACCTCTTGGGTTCTAACCTGTTGCCC (site GTAACCTCTCG) | 0.179
24 | GTAACCTCTTGGGTTCTAACCTGTTGCCC (site GTAACCTCTGG) | 1.97
25 | GTAACCTCTTGGGTTCTAACCTGTTGCCC (site GTAACCTCTTG) | 0.128
26 | GTAACTACTTGGGTTCTAACCTGTTGCAC (site CTAATTACTGT) | 0.0302
27 | GTAACTACTTGGGTTCTAACCTGTTGCAC (site GTAACTACTGT) | 0.926
28 | GTAACTACTTGGGTTCTAACCTGTTGCGG (site GTAACTACTCC) | 2.1
29 | GTAACTACTTGGGTTCTAACCTGTTGCGG (site GTCACTACTAC) | 0.0797
30 | GTAACTCCTTGGGTTCTAACCTGTTGCCT (site GTAACTCCTAG) | 0.487
31 | GTAACTCCTTGGGTTCTAACCTGTTGCCT (site TGAACTCCTAG) | 0.041
32 | GTAACTGCTTGGGTTCTAACCTGTTGCCT (site GTAAATGCTAG) | 0.373
33 | GTAACTGCTTGGGTTCTAACCTGTTGCCT (site GTAACTGCTAG) | 0.941
34 | GTAACTGCTTGGGTTCTAACCTGTTGCCT (site GTAAGTGCTAG) | 0.084
35 | GTAACTGCTTGGGTTCTAACCTGTTGCCT (site GTAATTGCTAG) | 0.0184
36 | GTAAGGACTTGGGTTCTAACCTGTTGCTT (site GTAAGAACTAA) | 0.738
37 | GTAAGGACTTGGGTTCTAACCTGTTGCTT (site GTAAGCACTAA) | 0.156
38 | GTAAGGACTTGGGTTCTAACCTGTTGCTT (site GTAAGGACTAA) | 1.16
39 | GTAAGGACTTGGGTTCTAACCTGTTGCTT (site GTAAGTACTAA) | 0.0109
40 | GTAAGTACTTGGGTTCTAACCTGTTGCCA (site ATAAGTCCTTG) | 0.063
41 | GTAAGTACTTGGGTTCTAACCTGTTGCCA (site GTAAGTACTTG) | 1.54
42 | GTAATTACTTGGGTTCTAACCTGTTGCCT (site GTAATTACTAG) | 0.441
43 | GTAATTACTTGGGTTCTAACCTGTTGCCT (site TACGCACCTTC) | 0.0355
44 | GTACAGCCTTGGGTTCTAACCTGTTGCCT (site GTACAGCCTAG) | 1.35

Row | Sequence | recombinant barcode read abundance (log10)
45 | GTACAGCCTTGGGTTCTAACCTGTTGCCT (site GTACCGCCTAG) | 0.0712
46 | GTACAGCCTTGGGTTCTAACCTGTTGCCT (site GTACGGCCTAG) | 0.0431
47 | GTACAGCCTTGGGTTCTAACCTGTTGCCT (site GTACTGCCTAG) | 0.155
48 | GTACATCCTTGGGTTCTAACCTGTTGCGT (site AAGGTCACTCA) | 0.0803
49 | GTACATCCTTGGGTTCTAACCTGTTGCGT (site GTACATCCTAC) | 2.13
50 | GTACGCGCTTGGGTTCTAACCTGTTGCGT (site CTACGCGCTAA) | 0.392
51 | GTACGCGCTTGGGTTCTAACCTGTTGCGT (site GTACGCGCTAC) | 1.14
52 | GTACGCTCTTGGGTTCTAACCTGTTGCTT (site GGAAGCTCTAA) | 0
53 | GTACGCTCTTGGGTTCTAACCTGTTGCTT (site GTACGCTCTAA) | 0.218
54 | GTACGGTCTTGGGTTCTAACCTGTTGCAT (site GTACGATCTTT) | 0.107
55 | GTACGGTCTTGGGTTCTAACCTGTTGCAT (site GTACGGTCTAT) | 2
56 | GTACGTCCTTGGGTTCTAACCTGTTGCTT (site GTACGTCCTAA) | 0.777
57 | GTACGTCCTTGGGTTCTAACCTGTTGCTT (site GTACGTCCTAC) | 0.143
58 | GTACGTCCTTGGGTTCTAACCTGTTGCTT (site GTACGTCCTAG) | 0.299
59 | GTACGTCCTTGGGTTCTAACCTGTTGCTT (site GTACGTCCTAT) | 0.374
60 | GTACTGCCTTGGGTTCTAACCTGTTGCCT (site GTACAGCCTAG) | 0.52
61 | GTACTGCCTTGGGTTCTAACCTGTTGCCT (site GTACCGCCTAG) | 0.366
62 | GTACTGCCTTGGGTTCTAACCTGTTGCCT (site GTACGGCCTAG) | 0.531
63 | GTACTGCCTTGGGTTCTAACCTGTTGCCT (site GTACTGCCTAG) | 1.28
64 | GTAGACACTTGGGTTCTAACCTGTTGCCG (site GTAAACACTCT) | 0.142
65 | GTAGACACTTGGGTTCTAACCTGTTGCCG (site GTAGACACTCG) | 1.28
66 | GTAGACCCTTGGGTTCTAACCTGTTGCCT (site ATAGACCCTAG) | 2.3

Row | Sequence | recombinant barcode read abundance (log10)
67 | GTAGACCCTTGGGTTCTAACCTGTTGCCT (site CTAGACCCTAG) | 1.16
68 | GTAGACCCTTGGGTTCTAACCTGTTGCCT (site GTAGACCCTAG) | 2.5
69 | GTAGACCCTTGGGTTCTAACCTGTTGCCT (site TTAGACCCTAG) | 1.85
70 | GTAGACCCTTGGGTTCTAACCTGTTGCGT (site GTAGACCCTAC) | 3.46
71 | GTAGACCCTTGGGTTCTAACCTGTTGCGT (site GTAGACCCTCA) | 0.309
72 | GTAGAGTCTTGGGTTCTAACCTGTTGCCT (site GAAGAGTCTAG) | 2.36
73 | GTAGAGTCTTGGGTTCTAACCTGTTGCCT (site GCAGAGTCTAG) | 1.94
74 | GTAGAGTCTTGGGTTCTAACCTGTTGCCT (site GGAGAGTCTAG) | 0.239
75 | GTAGAGTCTTGGGTTCTAACCTGTTGCCT (site GTAGAGTCTAG) | 2.84
76 | GTAGCAGCTTGGGTTCTAACCTGTTGCTC (site CTAGTAGCTGA) | 0.146
77 | GTAGCAGCTTGGGTTCTAACCTGTTGCTC (site GTAGCAGCTGA) | 1.4
78 | GTAGCGACTTGGGTTCTAACCTGTTGCCT (site ATAGGGACTAG) | 0.149
79 | GTAGCGACTTGGGTTCTAACCTGTTGCCT (site GTAGCGACTAG) | 1.43
80 | GTAGGAACTTGGGTTCTAACCTGTTGCTG (site CGGCTGTCTAG) | 0.0122
81 | GTAGGAACTTGGGTTCTAACCTGTTGCTG (site GTAGGAACTCA) | 2.54
82 | GTAGGGACTTGGGTTCTAACCTGTTGCCG (site AGCCCTTCTAA) | 0.192
83 | GTAGGGACTTGGGTTCTAACCTGTTGCCG (site GTAGGGACTCG) | 2.47
84 | GTAGTACCTTGGGTTCTAACCTGTTGCCT (site GTAGTAACTAG) | 0.0694
85 | GTAGTACCTTGGGTTCTAACCTGTTGCCT (site GTAGTACCTAG) | 1.73
86 | GTAGTACCTTGGGTTCTAACCTGTTGCCT (site GTAGTAGCTAG) | 0.247
